biological target: human NK-3 receptor (Homo sapiens (Human), UniProt P29371); test: 3H-SB222200 binding competition assay with human NK-3 receptor; settings: 3H-SB222200 displacement, CHO cell membranes expressing human NK3 receptor; read-out: Ki range
Procedure, shortened: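 Radioligand displacement: 5 nM tritiated SB222200 competed by varying compound concentrations on recombinant CHO membranes bearing human NK3, buffer pH 7.4 with HEPES, NaCl, CaCl2, MgCl2, BSA and saponin. Filter-bound radioactivity quantified; calculated Ki given as ranges from +++ (<500 nM) to # (>5 μM).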

Chain of human NK-3 receptor (P29371 whole entry): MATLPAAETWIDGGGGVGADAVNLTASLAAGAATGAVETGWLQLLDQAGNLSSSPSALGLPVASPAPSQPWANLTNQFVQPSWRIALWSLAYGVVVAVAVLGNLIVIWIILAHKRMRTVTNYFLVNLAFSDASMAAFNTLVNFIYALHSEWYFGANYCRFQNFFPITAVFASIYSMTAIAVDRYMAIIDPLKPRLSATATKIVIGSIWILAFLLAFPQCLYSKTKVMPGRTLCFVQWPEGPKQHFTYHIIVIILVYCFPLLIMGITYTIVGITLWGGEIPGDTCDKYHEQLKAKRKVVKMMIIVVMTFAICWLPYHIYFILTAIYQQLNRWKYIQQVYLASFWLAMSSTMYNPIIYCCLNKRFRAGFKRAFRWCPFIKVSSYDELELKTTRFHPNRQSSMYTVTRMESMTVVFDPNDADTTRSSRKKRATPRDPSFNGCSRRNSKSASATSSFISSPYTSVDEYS

`O=C(c1cc(-c2ccc(C(F)(F)F)cc2)n[nH]1)N1CCn2c(nnc2-c2ccccn2)C1` [Compound 17, (3-(pyridin-2-yl)-5,6-dihydro-[1,2,4]triazolo[4,3-a]pyrazin-7(8H)-yl)(3-(4-(trifluoromethyl)phenyl)-1H-pyrazol-5-yl)methanone] and `O=C(c1cc(-c2ccc(Cl)cc2)n[nH]1)N1CCn2c(nnc2-c2ccccn2)C1` [Compound 3, (3-(4-chlorophenyl)-1H-pyrazol-5-yl)(3-(pyridin-2-yl)-5,6-dihydro-[1,2,4]triazolo[4,3-a]pyrazin-7(8H)-yl)methanone] fall in the same range of Ki: 1000 to 5000 nM for the first, 1000 to 5000 nM for the second.

`C[C@H]1c2nnc(-c3csc(-c4ccc(F)cc4F)n3)n2CCN1C(=O)c1ccc(-c2cccs2)cc1` [Compound 165, (S)-(3-(2-(2,4-difluorophenyl)thiazol-4-yl)-8-methyl-5,6-dihydro-[1,2,4]triazolo[4,3-a]pyrazin-7(8H)-yl)(4-(thiophen-2-yl)phenyl)methanone] and `O=C(c1ccc(-c2cccs2)cc1)N1CCn2c(nnc2-c2csc(-c3ccc(F)cc3F)n2)C1` [Compound 170, (3-(2-(2,4-difluorophenyl)thiazol-4-yl)-5,6-dihydro-[1,2,4]triazolo[4,3-a]pyrazin-7(8H)-yl)(4-(thiophen-2-yl)phenyl)methanone] cannot be ordered by Ki: < 500 nM for the first, < 500 nM for the second.

`O=C(c1ccc(-c2cccs2)cc1)N1CCn2c(nnc2-c2nc(-c3ccc(F)cc3)no2)C1` [Compound 176, (3-(3-(4-fluorophenyl)-1,2,4-oxadiazol-5-yl)-5,6-dihydro-[1,2,4]triazolo[4,3-a]pyrazin-7(8H)-yl)(4-(thiophen-2-yl)phenyl)methanone] and `O=C(c1ccc(-c2ccccc2)cc1)N1CCn2c(nnc2-c2nc(-c3ccc(F)cc3)no2)C1` [Compound 204, [1,1′-biphenyl]-4-yl(3-(3-(4-fluorophenyl)-1,2,4-oxadiazol-5-yl)-5,6-dihydro-[1,2,4]triazolo[4,3-a]pyrazin-7(8H)-yl)methanone] cannot be ordered by Ki: < 500 nM for the first, < 500 nM for the second.

`Cn1nc(-c2nnc3n2CCN(C(=O)c2ccc(F)cc2)C3)cc1-c1ccccc1` [Compound 238, (4-fluorophenyl)(3-(1-methyl-5-phenyl-1H-pyrazol-3-yl)-5,6-dihydro-[1,2,4]triazolo[4,3-a]pyrazin-7(8H)-yl)methanone] and `O=C(c1ccc(F)cc1)N1CCn2c(nnc2-c2coc(-c3ccccc3)n2)C1` [Compound 47, (4-fluorophenyl)(3-(2-phenyloxazol-4-yl)-5,6-dihydro-[1,2,4]triazolo[4,3-a]pyrazin-7(8H)-yl)methanone] cannot be ordered by Ki: < 500 nM for the first, < 500 nM for the second.

`Cn1nc(-c2nnc3n2CCN(C(=O)c2ccc(-c4cccs4)cc2)C3)cc1-c1ccccc1` [Compound 222, (3-(1-methyl-5-phenyl-1H-pyrazol-3-yl)-5,6-dihydro-[1,2,4]triazolo[4,3-a]pyrazin-7(8H)-yl)(4-(thiophen-2-yl)phenyl)methanone] and `O=C(c1ccc(-c2cccs2)cc1)N1CCn2c(nnc2-c2cc(-c3ccccc3)n(CCO)n2)C1` [Compound 285, (3-(1-(2-hydroxyethyl)-5-phenyl-1H-pyrazol-3-yl)-5,6-dihydro-[1,2,4]triazolo[4,3-a]pyrazin-7(8H)-yl)(4-(thiophen-2-yl)phenyl)methanone] cannot be ordered by Ki: < 500 nM for the first, < 500 nM for the second.

First: Cc1ccc(C(=O)N2CCn3c(nnc3-c3ccccn3)C2)cc1 [Compound 232, (3-(pyridin-2-yl)-5,6-dihydro-[1,2,4]triazolo[4,3-a]pyrazin-7(8H)-yl)(p-tolyl)methanone]
Second: O=C(c1ccc(F)cc1)N1CCn2c(nnc2-c2nc3ccccc3s2)C1 [Compound 59, (3-(benzo[d]thiazol-2-yl)-5,6-dihydro-[1,2,4]triazolo[4,3-a]pyrazin-7(8H)-yl)(4-fluorophenyl)methanone]
The Ki of the first is higher: 1000 to 5000 nM for the first, < 500 nM for the second. The second binds more tightly here.

Compared with `O=C(c1ccc(F)cc1)N1CCn2c(nnc2-c2csc(N3CCCC3)n2)C1` [Compound 249, (4-fluorophenyl)(3-(2-(pyrrolidin-1-yl)thiazol-4-yl)-5,6-dihydro-[1,2,4]triazolo[4,3-a]pyrazin-7(8H)-yl)methanone], `CC(C)Cc1nc(-c2nnc3n2CCN(C(=O)c2ccc(F)cc2)C3)cs1` [Compound 259, (4-fluorophenyl)(3-(2-isobutylthiazol-4-yl)-5,6-dihydro-[1,2,4]triazolo[4,3-a]pyrazin-7(8H)-yl)methanone] is higher in Ki: < 500 nM for the first, 1000 to 5000 nM for the second.

First: O=C(c1ccc(F)cc1)N1CCn2c(nnc2-c2ccc3cccc(F)c3n2)C1 [Compound 22, (4-fluorophenyl)(3-(8-fluoroquinolin-2-yl)-5,6-dihydro-[1,2,4]triazolo[4,3-a]pyrazin-7(8H)-yl)methanone]
Second: O=C(c1ccc(F)cc1)N1CCn2c(nnc2-c2csc(-c3ccc(C(F)(F)F)cc3)n2)C1 [Compound 24, (4-fluorophenyl)(3-(2-(4-(trifluoromethyl)phenyl)thiazol-4-yl)-5,6-dihydro-[1,2,4]triazolo[4,3-a]pyrazin-7(8H)-yl)methanone]
The Ki of the first is higher: 500 to 1000 nM for the first, < 500 nM for the second. The second binds more tightly here.

`CN1CCN(c2ccc(-c3nc(-c4nnc5n4CCN(C(=O)c4ccc(F)cc4)C5)cs3)cc2)CC1` [Compound 242, (4-fluorophenyl)(3-(2-(4-(4-methylpiperazin-1-yl)phenyl)thiazol-4-yl)-5,6-dihydro-[1,2,4]triazolo[4,3-a]pyrazin-7(8H)-yl)methanone] and `CN(C)c1ccc(-c2nc(-c3nnc4n3CCN(C(=O)c3ccc(F)cc3)C4)cs2)cc1` [Compound 221, (3-(2-(4-(dimethylamino)phenyl)thiazol-4-yl)-5,6-dihydro-[1,2,4]triazolo[4,3-a]pyrazin-7(8H)-yl)(4-fluorophenyl)methanone] fall in the same range of Ki: 500 to 1000 nM for the first, 500 to 1000 nM for the second.

`CC1c2nnc(-c3csc(-c4ccc(F)cc4F)n3)n2CCN1C(=O)c1ccc(F)cc1` (stereo not shown) [Compound 77, (3-(2-(2,4-difluorophenyl)thiazol-4-yl)-8-methyl-5,6-dihydro-[1,2,4]triazolo[4,3-a]pyrazin-7(8H)-yl)(4-fluorophenyl)methanone] and `Cc1sccc1-c1ccc(C(=O)N2CCn3c(-c4csc(-c5ccc(F)cc5)n4)nnc3[C@H]2C)cc1` [Compound 234, (R)-(3-(2-(4-fluorophenyl)thiazol-4-yl)-8-methyl-5,6-dihydro-[1,2,4]triazolo[4,3-a]pyrazin-7(8H)-yl)(4-(2-methylthiophen-3-yl)phenyl)methanone] cannot be ordered by Ki: < 500 nM for the first, < 500 nM for the second.

First: O=C(c1ccc(-c2cccs2)cc1)N1CCn2c(nnc2-c2csc(-c3cccc(F)c3)n2)C1 [Compound 207, (3-(2-(3-fluorophenyl)thiazol-4-yl)-5,6-dihydro-[1,2,4]triazolo[4,3-a]pyrazin-7(8H)-yl)(4-(thiophen-2-yl)phenyl)methanone]
Second: Cn1cc(-c2nnc3n2CCN(C(=O)c2ccc(-c4cccs4)cc2)C3)nc1-c1ccccc1 [Compound 252, (3-(1-methyl-2-phenyl-1H-imidazol-4-yl)-5,6-dihydro-[1,2,4]triazolo[4,3-a]pyrazin-7(8H)-yl)(4-(thiophen-2-yl)phenyl)methanone]
The Ki of the first is lower: < 500 nM for the first, 500 to 1000 nM for the second.

`COCC1CCCCN1c1nc(-c2nnc3n2CCN(C(=O)c2ccc(-c4cccs4)cc2)C3)cs1` (stereo not shown) [Compound 279, (3-(2-(2-(methoxymethyl)piperidin-1-yl)thiazol-4-yl)-5,6-dihydro-[1,2,4]triazolo[4,3-a]pyrazin-7(8H)-yl)(4-(thiophen-2-yl)phenyl)methanone] and `CC1CN(c2nc(-c3nnc4n3CCN(C(=O)c3ccc(-c5cccs5)cc3)C4)cs2)C(C)CO1` (stereo not shown) [Compound 261, (3-(2-(2,5-dimethylmorpholino)thiazol-4-yl)-5,6-dihydro-[1,2,4]triazolo[4,3-a]pyrazin-7(8H)-yl)(4-(thiophen-2-yl)phenyl)methanone] cannot be ordered by Ki: < 500 nM for the first, < 500 nM for the second.

`CC1c2nnc(-c3csc(N4CCOCC4)n3)n2CCN1C(=O)c1ccc(-c2cccs2)cc1` (stereo not shown) [Compound 56, (8-methyl-3-(2-morpholinothiazol-4-yl)-5,6-dihydro-[1,2,4]triazolo[4,3-a]pyrazin-7(8H)-yl)(4-(thiophen-2-yl)phenyl)methanone] and `O=C(c1ccc(-c2cccs2)cc1)N1CCn2c(nnc2-c2csc(N3CCC(F)(F)CC3)n2)C1` [Compound 263, (3-(2-(4,4-difluoropiperidin-1-yl)thiazol-4-yl)-5,6-dihydro-[1,2,4]triazolo[4,3-a]pyrazin-7(8H)-yl)(4-(thiophen-2-yl)phenyl)methanone] cannot be ordered by Ki: < 500 nM for the first, < 500 nM for the second.

`Cc1nc(-c2ccccc2)sc1-c1nnc2n1CCN(C(=O)c1ccc(-c3ccccc3)cc1)C2C` (stereo not shown) [Compound 72, [1,1′-biphenyl]-4-yl(8-methyl-3-(4-methyl-2-phenylthiazol-5-yl)-5,6-dihydro-[1,2,4]triazolo[4,3-a]pyrazin-7(8H)-yl)methanone] and `C[C@H]1c2nnc(-c3ccc4ccccc4n3)n2CCN1C(=O)c1ccc(F)cc1` [Compound 162, (S)-(4-fluorophenyl)(8-methyl-3-(quinolin-2-yl)-5,6-dihydro-[1,2,4]triazolo[4,3-a]pyrazin-7(8H)-yl)methanone] cannot be ordered by Ki: < 500 nM for the first, < 500 nM for the second.

First: N#Cc1ccc(-c2ccc(C(=O)N3CCn4c(nnc4-c4ccc5ccccc5n4)C3)cc2)cc1 [Compound 103, 4′-(3-(quinolin-2-yl)-5,6,7,8-tetrahydro-[1,2,4]triazolo[4,3-a]pyrazine-7-carbonyl)-[1,1′-biphenyl]-4-carbonitrile]
Second: CN(C)c1ccc(C(=O)N2CCn3c(nnc3-c3csc(-c4ccc(F)cc4)n3)C2)cc1 [Compound 253, (4-(dimethylamino)phenyl)(3-(2-(4-fluorophenyl)thiazol-4-yl)-5,6-dihydro-[1,2,4]triazolo[4,3-a]pyrazin-7(8H)-yl)methanone]
The Ki of the first is higher: 1000 to 5000 nM for the first, 500 to 1000 nM for the second.

`Cc1scnc1-c1nnc2n1CCN(C(=O)c1ccc(-c3cccs3)cc1)C2` [Compound 275, (3-(5-methylthiazol-4-yl)-5,6-dihydro-[1,2,4]triazolo[4,3-a]pyrazin-7(8H)-yl)(4-(thiophen-2-yl)phenyl)methanone] was tested, and the Ki was > 5000 nM.

From patent publication US10544150B2, “NK-3 receptor selective antagonist compounds, pharmaceutical composition and methods for use in NK-3 receptors mediated disorders” (Ogeda SA, priority 2010, dated 2020)
